In paper PMC4363635 (PLoS ONE, 2015):
Ends that are not written are not given here. Peptide text beside a SMILES is read from it.

Tests used:
Stability in cell medium = assay type: in vitro ADME; conditions: cell medium in Krebs-Henseleit buffer, 37°C
Protocol: (§1) In vitro chemical and metabolic stability was determined in cell medium and human plasma, respectively, using previously described procedures. In brief, 100 μg of peptide was incubated in Krebs-Henseleit buffer pH 7.4 with cell medium/plasma (500 μl) at 37°C while shaking. […] The enzyme reaction was further stopped by heating the solution at 95°C for 5 minutes. Next, the samples were centrifuged to precipitate the denatured proteins and the supernatant analyzed using UPLC-PDA. Appropriate placebo solutions were similarly prepared. Assuming first-order kinetics, the rate constant k was obtained from ln(Pt/Pt0) = -kt, from which the half-life was determined as t1/2 = ln(2)/k.

[1] = Stability in human plasma; assay type: in vitro ADME; conditions: human plasma in Krebs-Henseleit buffer
Protocol: as §1

in vitro = conditions: human, Caco-2
Caco-2 monolayer = assay: Caco-2 permeability assay; conditions: for intestinal permeability (in words): Caco-2 monolayer, 10 μM in HBSS
MCF-7/AZ cells = assay: Collagen type I invasion assay; assay type: cell-based, human; conditions: 24 hours post-treatment; 1 μM, 100 nM and 10 nM; positive if collagen-invasion or cell-stretching at minimum 2 consecutive concentrations; n = 3
Protocol: Morphology changes of MCF-7/AZ cells were investigated using previously described methods [12]. […] Peptide solutions (S1 Table) (> 80% purity; all from GL Biochem, Shanghai, China) were prepared using ultrapure water and DMSO, obtaining final peptide concentrations of 1 μM (maximum 0.05% DMSO), 100 nM and 10 nM after 1:10 dilution using growth medium. […] To quantify these visual results, the number of cells containing invasive extensions were counted and compared to the total number of cells in the field.

[2] = Krebs-Henseleit buffer pH 7.4 with cell medium, 0, 6 and 24 hours, first-order kinetics, read-out: Cell medium half-life (converted)
[3] = human, pH 7.4, human plasma, Krebs-Henseleit buffer pH 7.4, 37°C, 0, 30 and 120 minutes, first-order kinetics, read-out: Plasma half-life (converted)
[4] = human, pH 7.4, footnote a, human plasma, 37°C, sampled up to 120 minutes, read-out: calculated half-life in plasma

Compound | half-life (Stability in cell medium; [2]) [h] | half-life [1, 3] [h] | Papp A→B at 120 min, 10 μM (in vitro) [×10⁻⁶ cm/s] | intestinal permeability (in words) (Caco-2 monolayer) | half-life [1, 4] [h] | other results
NC(=O)C[C@H](NC(=O)[C@H](Cc1c[nH]c2ccccc12)NC(=O)[C@@H](N)CC(N)=O)C(=O)O [EDF-analogue, NWN] (H-Asn-Trp-Asn-OH; N-terminus and C-terminus assumed) | 42 | 4.47 | 0.141 | can pass the intestinal barrier | – | efflux ratio at 120 min, 10 μM (in vitro): 1.1; efflux ratio change using the PepT1 substrate LY (Caco-2 monolayer; 10 μM peptide plus dipeptide LY (10 μM)): doubled; intestinal permeability (in words) (Caco-2 monolayer; listed as NWN): low intestinal permeability kinetics; absorption in humans (in vivo) corresponding to in vitro Papp values (Caco-2 monolayer; in vivo-in vitro correlation studies ref 15, 33): 5–10%
ARNQT [PhrA] | – | – | – | – | – | tumour cell invasion through a type I collagen extracellular matrix (morphology scoring) (MCF-7/AZ cells): did not induce invasive characteristics
EKMIG [PhrG, EKMIG] | – | > 13 | < 0.0069 | does not show any absorption from the intestinal lumen | 13.2 | half-life (Stability in cell medium; pH 7.4, Krebs-Henseleit buffer pH 7.4 with cell medium, 0, 6 and 24 hours, first-order kinetics, read-out: Cell medium half-life (converted)): 160 h; half-life (Stability in cell medium; pH 7.4, footnote a, sampled up to 24 hours, read-out: calculated half-life in cell medium): 158 h; Papp B→A at 120 min, 10 μM (in vitro): 0.0137 ×10⁻⁶ cm/s
EMRKSNNNFFHFLRRI [CSP] | 45.8 | – | – | – | – | half-life ([1]; human plasma, Krebs-Henseleit buffer pH 7.4, 37°C, 0, 30 and 120 minutes, first-order kinetics, read-out: Plasma half-life (converted)): 8.73 h
NNWNN [EDF, NNWNN] | 16.2 | > 13 | – | impermeable | 13.2 | Papp at 120 min, 10 μM (in vitro): < 0.0029 ×10⁻⁶ cm/s
